Test results as given in US5462725A, “2-pyridylmethylenepolyazamacrocyclophosphonic acids, complexes and derivatives thereof, for use as contrast agents” (priority 1993, dated 1995).
Read-outs that look alike come from different tables or passages of the source.

Tests used:
[1] = background; cited from earlier work
[2] = in vivo; cited from earlier work
[3] = background; cited from earlier work; remark: listed apart in the source
[4] = Biodistribution of 153Sm complex after tail vein injection; type: in vivo, Sprague Dawley rats; details: rat, i.v. tail vein; for % INJECTED DOSE, Blood: blood assumed 6.5% of body weight; for % INJECTED DOSE, Bone: femur x 25; for % INJECTED DOSE, Muscle: muscle assumed 43% of body weight
Procedure: Sprague Dawley rats were allowed to acclimate for five days then injected with 100 μL of the complex solution via a tail vein. The rats weighed between 150 and 200 g at the time of injection. After 30 min. the rats were killed by cervical dislocation and dissected. The amount of radioactivity in each tissue was determined by counting in a NaI scintillation counter coupled to a multichannel analyzer. The counts were compared to the counts in 100 μL standards in order to determine the percentage of the dose in each tissue or organ.
The percent dose in blood was estimated assuming blood to be 6.5% of the total body weight. The percent dose in bone was estimated by multiplying the percent dose in the femur by 25. The percent dose in muscle was estimated assuming muscle to be 43% of the total body weight. The number of rats used in the average is n.
In addition to organ biodistribution, chelates of the compounds of Formula (I) were evaluated for efficiency of bone localization since phosphonates are known for their ability to bind to hydroxyapatite.
When the complex ^153 Sm[N-(2-pyridylmethyl)-N',N",N'"-tris(methylenephosphonic acid ethyl ester)-1,4,7,10-tetraazacyclododecane] The numbers represent the average of a minimum of 2 rats per data point at 2 hours post injection.
When the complex ^153 Sm[N-(2-pyridylmethyl)-N',N",N'"-tris(methylenephosphonic acid propyl ester)-1,4,7,10-tetraazacyclododecane] The numbers represent the average of a minimum of 3 rats per data point at 2 and 24 hours post injection.

| Compound | side effects / toxicity [1] | distribution and elimination [2] | % Complex (pH 1) | % Complex (pH 7) | % Complex (pH 9) | % Complex (pH 11) | % Complex (pH 14) | % INJECTED DOSE, Brain ([4]; 2 hours post injection) | % INJECTED DOSE, Heart ([4]; 2 hours post injection) | % INJECTED DOSE, Kidney ([4]; 2 hours post injection) | % INJECTED DOSE, Liver ([4]; 2 hours post injection) | % INJECTED DOSE, Lung ([4]; 2 hours post injection) | % INJECTED DOSE, Spleen ([4]; 2 hours post injection) | % INJECTED DOSE, Urine ([4]; 2 hours post injection) | % INJECTED DOSE, Blood ([4]; 2 hours post injection) | % INJECTED DOSE, Bone ([4]; 2 hours post injection) | % INJECTED DOSE, Muscle ([4]; 2 hours post injection) | % Complex (pH 3) | % Complex (pH 5) | further results |
| --- | --- | --- | --- | --- | --- | --- | --- | --- | --- | --- | --- | --- | --- | --- | --- | --- | --- | --- | --- | --- |
| [Cl][Gd]([Cl])[Cl] [GdCl3] | toxic to an animal | – | – | – | – | – | – | – | – | – | – | – | – | – | – | – | – | – | – | – |
| CNC[C@H](O)[C@@H](O)[C@H](O)[C@H](O)CO.CNC[C@H](O)[C@@H](O)[C@H](O)[C@H](O)CO.O=C([O-])CN(CCN(CC(=O)[O-])CC(=O)O)CCN(CC(=O)[O-])CC(=O)O.[Gd+3] [Magnevist™, complex of gadolinium with diethylenetriaminepentaacetic acid] | – | freely distribute in extracellular fluid followed by efficient elimination through the renal system | – | – | – | – | – | – | – | – | – | – | – | – | – | – | – | – | – | – |
| CC(O)CN1CCN(CC(=O)[O-])CCN(CC(=O)[O-])CCN(CC(=O)[O-])CC1.[Gd+3] (stereo not drawn) [Prohance™, [1,4,7-tris(carboxymethyl)-10-(2-hydroxypropyl)-1,4,7,10-tetraazacyclododecanato]gadolinium] | fewer side effects than Magnevist™ | freely distribute in extracellular fluid followed by efficient elimination through the renal system | – | – | – | – | – | – | – | – | – | – | – | – | – | – | – | – | – | kinetic stability of DO3A derivative chelates [3]: gains added kinetic stability by virtue of a pendant hydroxyl moiety |
| O=C([O-])CN1CCN(CC(=O)[O-])CCN(Cc2ccccn2)CCN(CC(=O)[O-])CC1.[153Sm+3] [^153 Sm-PD3A] | – | – | 98.30% | 99.86% | 99.86% | 99.80% | 99.96% | – | – | – | – | – | – | – | – | – | – | – | – | % Complex (pH 2): 99.38%; % Complex (pH 4): 99.62% |
| CCOP(=O)([O-])CN1CCN(Cc2ccccn2)CCN(CP(=O)([O-])OCC)CCN(CP(=O)([O-])OCC)CC1.[153Sm+3] [^153 Sm-PD3EP, ^153 Sm[N-(2-pyridylmethyl)-N',N",N'"-tris(methylenephosphonic acid ethyl ester)-1,4,7,10-tetraazacyclododecane]] | – | – | 78.95% | 93.77% | 95.89% | 95.77% | 94.07% | 0.01 % INJECTED DOSE | 0.01 % INJECTED DOSE | 1.24 % INJECTED DOSE | 0.36 % INJECTED DOSE | 0.02 % INJECTED DOSE | 0.01 % INJECTED DOSE | 97.00 % INJECTED DOSE | 0.45 % INJECTED DOSE | 0.82 % INJECTED DOSE | 0.62 % INJECTED DOSE | 93.80% | 93.02% | – |
| CCCOP(=O)([O-])CN1CCN(Cc2ccccn2)CCN(CP(=O)([O-])OCCC)CCN(CP(=O)([O-])OCCC)CC1.[153Sm+3] [^153 Sm-PD3PP, ^153 Sm[N-(2-pyridylmethyl)-N',N",N'"-tris(methylenephosphonic acid propyl ester)-1,4,7,10-tetraazacyclododecane]] | – | – | 72.52% | 95.06% | 95.22% | 92.74% | 87.65% | 0.04 % INJECTED DOSE | 0.04 % INJECTED DOSE | 0.86 % INJECTED DOSE | 20.36 % INJECTED DOSE | 0.20 % INJECTED DOSE | 1.19 % INJECTED DOSE | 50.00 % INJECTED DOSE | 0.68 % INJECTED DOSE | 5.93 % INJECTED DOSE | 0.82 % INJECTED DOSE | 87.56% | 92.99% | % INJECTED DOSE, Large Intestine ([4]; 2 hours post injection): 0.18 % INJECTED DOSE; % INJECTED DOSE, Small intestine ([4]; 2 hours post injection): 13.56 % INJECTED DOSE; % INJECTED DOSE, Stomach ([4]; 2 hours post injection): 1.39 % INJECTED DOSE; % INJECTED DOSE, Brain ([4]; 24 hours post injection): 0.00 % INJECTED DOSE; % INJECTED DOSE, Feces ([4]; 24 hours post injection): 5.33 % INJECTED DOSE; % INJECTED DOSE, Heart ([4]; 24 hours post injection): 0.02 % INJECTED DOSE; % INJECTED DOSE, Kidney ([4]; 24 hours post injection): 0.89 % INJECTED DOSE; % INJECTED DOSE, Large Intestine ([4]; 24 hours post injection): 0.16 % INJECTED DOSE; % INJECTED DOSE, Liver ([4]; 24 hours post injection): 2.31 % INJECTED DOSE; % INJECTED DOSE, Lung ([4]; 24 hours post injection): 0.40 % INJECTED DOSE; % INJECTED DOSE, Small intestine ([4]; 24 hours post injection): 0.13 % INJECTED DOSE; % INJECTED DOSE, Spleen ([4]; 24 hours post injection): 0.22 % INJECTED DOSE; % INJECTED DOSE, Stomach ([4]; 24 hours post injection): 0.04 % INJECTED DOSE; % INJECTED DOSE, Urine ([4]; 24 hours post injection): 83.00 % INJECTED DOSE; % INJECTED DOSE, Blood ([4]; 24 hours post injection): 0.03 % INJECTED DOSE; % INJECTED DOSE, Bone ([4]; 24 hours post injection): 12.39 % INJECTED DOSE; % INJECTED DOSE, Muscle ([4]; 24 hours post injection): 0.27 % INJECTED DOSE |
